In patent publication US6670384B2, “Methods of administering epothilone analogs for the treatment of cancer” (Bristol-Myers Squibb Company, priority 2001, dated 2003):
Like-named read-outs stand apart in the source and are kept apart here.

Tests used:
[1] = Pharmacokinetics of Compound II given orally and intravenously to cancer patients (plasma, LC/MS/MS); format: in vivo, human; conditions: for Tmax / Cmax / bioavailability: human, plasma; for bioavailability: read-out: % F (absolute bioavailability)
Experimental: Patients with Advanced Malignancies were administered Compound II weekly as a 30-minute infusion (a course=3 intravenous weekly administrations). Patients received doses of 1, 2.5, 5, 10, 20, 25, or 30 mg/m^2. […] The dose of oral Compound II administered on Day 6 matched the dose of IV Compound II administered on day 1. Serial plasma sampling was obtained on day 6 and day 1 of course 1 to assess pharmacokinetics by an LC/MS/MS.
Samples were analyzed by adding an internal standard to 0.2 mL of plasma sample, precipitating with acetone, and then extracting the supernatant with 1-chlorobutane. The organic layer was removed and evaporated to dryness. The residue was reconstituted and injected into the LC/MS/MS system. Chromatographic separation was achieved, isocratically, on a YMC ODS-AQ column (4.6×50 mm, 3:m) with a mobile phase of acetonitrile:0.01M ammonium acetate, pH 5.0 (65:35). Detection was by negative electrospray tandem mass spectrometry. The standard curve, which ranged from 2 to 500 ng/mL for all analytes and was fitted to a 1/x weighted quadratic regression model.
The propylene glycol/ethanol mixture was prepared by mixing 80 parts by volume of propylene glycol and 20 parts by volume of ethanol in a suitable container and gently swirling the container until the solution was completely mixed.
Buffer for use with Compound II was constituted with water for injection (WFI).
Compound II was prepared for administration to patients by using a suitable syringe to slowly inject 2.5, 5, or 10 mL of the propylene glycol/ethanol mixture into the 20 cc vial containing 25 mg/vial of Compound II, to give concentrations of 10, 5, or 2.5 mg/mL, respectively, depending on the dose to be administered to the patient. The syringe was removed and the vial shaken vigorously for 10 seconds. The vial was placed in a sonication bath and sonicated until the solution became clear. Vials were pooled depending on the dose.
The bottle was shaken vigorously or sonicated with intermittent shaking until a clear solution was obtained.
Following oral administration on day 6, 7 mL blood samples was collected into Becton Dickinson Vacutainer tubes with K3EDTA as anticoagulent (lavender-colored top) according to the following schedule (expressed as hours:minutes from the start of the oral administration): predose, 00:15, 00:30, 00:45, 1:00, 1:30, 2:00, 3:00, 4:00, 6:00, 8:00, 24:00, 48:00, and 72:00. Following IV administration on day 1, 7 mL blood samples were collected into Becton Dickinson Vacutainer tubes with K3EDTA as anticoagulent (lavender-colored top) according to the following schedule (expressed as hours:minutes from the start of the IV infusion):predose, 00:15, 00:30 (end-of infusion), 00:45, 1:00, 1:30, 2:00, 3:00, 4:00, 6:00, 8:00, 24:00, 48:00, and 72:00.
Immediately after blood collection, the Vacutainer tubes were inverted several times to ensure mixing with the anticoagulant and then immediately placed on crushed ice. Within 30 minutes of collection, samples were centrifuged for 5 minutes at approximately 2000×g and 0 to 5 EC. The plasma was then transferred to separate pre-labeled screw-capped polypropylene tubes and stored at −70 EC until bioanalysis. Plasma concentrations of Compound II were analyzed using the LC/MS/MS assay.
The plasma concentration versus time data were analyzed using non-compartmental methods. The pharmacokinetic parameters determined for Compound II included the maximum observed plasma concentration (Cmax), time to reach Cmax (Tmax), area under the plasma concentration time curve from time zero to the time of last sampling time T(AUC(0-T)).
A total of 18 patients have received oral Compound II as a solution on day 6 and by IV on day 1.

[2] = Dose escalation study of weekly IV Compound II in cancer patients (MTD, dose limiting toxicity); format: in vivo, human; conditions: 30 minute IV infusion every week
From the text: (§1) A total of 24 cancer patients (12 male and 12 female) received compound II by IV administration to evaluate the maximum tolerated dose (MTD), the dose limiting toxicity (DLT), the pharmacokinitics and pharmacodynamics, and to evaluate the anti-tumor activity of compound II. The median age (range) of the patients was 57 (34-74). 5 patients had breast cancer, 5 patients had head and neck cancer, 2 patients had sarcoma, 2 patients had colorectal cancer, 2 patients had UPT cancer, 2 patients had melanoma, 2 patients had cancer of the esophagus, 1 patient had renal cancer, 1 patient had cervical cancer, 1 patient had thyroid cancer, and 1 patient had anal cancer. 21 patients had received prior chemotherapy (18 patients received neurotoxic agents and 18 patients received radiotherapy). The median number of prior chemotherapy lines including adjuvant (range) was 2 (1-3).
Patients were orally administered compound II on day 1 (for dose levels of 20 mg/m^2 and higher) followed by a 30 minute IV infusion of compound II every week starting on day 7. Patients were administered compound II at doses of 1, 2.5, 5, 10, 20, 25, and 30 mg/m^2.

breast tumors = experiment: Anti-tumor response in previously treated cancer patients, breast tumors; format: in vivo, human; conditions: breast cancer patients previously treated with chemotherapy
From the text: as §1
(§2) In a second study a total of 12 cancer patients (5 male and 7 female) were orally administered compound II on day 1 followed by a 30 minute IV infusion of compound II every week starting on day 7 at a dose of 25 mg/m^2 to evaluate neurotoxicity of compound II. The median age (range) of the patients was 51 (30-65). 4 patients had colorectal cancer, 3 patients had breast cancer, 2 patients had melanoma, 1 patient had renal cancer, 1 patient had sarcoma, and 1 patient had ovary cancer. […]

colon tumors = experiment: Anti-tumor response in previously treated cancer patients, colon tumors; format: in vivo, human; conditions: metastatic colon cancer patients previously treated with chemotherapy
From the text: as §1, §2

[3] = Stability of the drug during dissolution in tertiary butanol/water and lyophilization; format: physicochemical; conditions: tertiary butanol/Water for Injection 1:1 at 5 EC, lyophilized at −16 EC 48 hours, dried at 15 EC 48 hours, light protected
Experimental: [1S-[1R*,3R*(E),7R*,10S*,11R*,12R*,16S*]]-7,11-Dihydroxy-8,8,10,12,16-pentamethyl-3-[1-methyl-2-(2-methyl-4-thiazolyl)ethenyl]-4-aza-17-oxabicyclo[14.1.0]heptadecane-5,9-dione, 9.86 g, was wetted/partially dissolved with 600 mL of a 9:1 mixture of tertiary butanol and Water for Injection USP which had been pre-cooled to 5 EC. Once the drug powder had become completely wetted, dissolution was completed by the addition of 600 mL of a 1:9 mixture of tertiary butanol and Water for Injection and 766 mL of a 1:1 mixture of tertiary butanol and Water for Injection which likewise had been pre-cooled to 5 EC thereby making the final solution a 1:1 mixture. The dissolution was carried out under protection from light.
The solution formed above was promptly lyophilized in a Virtis INOTOP lyophilizer at −16 EC under light protectant conditions over a period of 48 hours. The resultant lyophilized product (lyophile) was then further dried at 15 EC under high vacuum for 48 hours. […] The lyophile was packaged under sterile conditions into 30 mL vials, each containing 10 mg of drug and standard excess to allow for vial/needle/syringe loss.

C/C(=C\c1csc(C)n1)C1C[C@@H]2O[C@]2(C)CCC[C@H](C)[C@H](O)[C@@H](C)C(=O)C(C)(C)[C@@H](O)CC(=O)N1 (relative stereo) [Compound II, [1S-[1R*,3R*(E),7R*,10S*,11R*, 12R*,16S*,]]-7,11-Dihydroxy-8,8,10,12,16-pentamethyl-3-[1-methyl-2-(2-methyl-4-thiazolyl)ethenyl]-4-aza-7-oxabicyclo[14.1.0]heptadecane-5,9-dione]
AUC(0-T) ([1]; 20 mg/m^2, IV, patients N=3, mean): 796 H · ng/mL
AUC(0-T) ([1]; 20 mg/m^2, oral solution, patients N=3, mean): 404 H · ng/mL
AUC(0-T) ([1]; 25 mg/m^2, IV, patients N=11, mean): 848 H · ng/mL
AUC(0-T) ([1]; 25 mg/m^2, oral solution, patients N=11, mean): 533 H · ng/mL
AUC(0-T) ([1]; 30 mg/m^2, IV, patients N=4, mean): 1155 H · ng/mL
AUC(0-T) ([1]; 30 mg/m^2, oral solution, patients N=4, mean): 708 H · ng/mL
Tmax ([1]; 20 mg/m2, 20 mg/m^2, IV, patients N=3, median): 15 min
Cmax ([1]; 20 mg/m2, 20 mg/m^2, oral solution, patients N=3, mean): 142 ng/mL
Tmax ([1]; 20 mg/m2, 20 mg/m^2, oral solution, patients N=3, median): 60 min
Tmax ([1]; 25 mg/m2, 25 mg/m^2, IV, patients N=11, median): 30 min
Cmax ([1]; 25 mg/m2, 25 mg/m^2, oral solution, patients N=11, mean): 180 ng/mL
Tmax ([1]; 25 mg/m2, 25 mg/m^2, oral solution, patients N=11, median): 30 min
Tmax ([1]; 30 mg/m2, 30 mg/m^2, IV, patients N=4, median): 30 min
Cmax ([1]; 30 mg/m2, 30 mg/m^2, oral solution, patients N=4, mean): 274 ng/mL
Tmax ([1]; 30 mg/m2, 30 mg/m^2, oral solution, patients N=4, median): 30 min
Cmax ([1]; 20 mg/m^2, IV 30-minute infusion, patients N=3, mean): 251 ng/mL
bioavailability ([1]; 20 mg/m^2, oral solution vs IV, patients N=3, mean): 43.5%
Cmax ([1]; 25 mg/m^2, IV 30-minute infusion, patients N=11, mean): 447 ng/mL
bioavailability ([1]; 25 mg/m^2, oral solution vs IV, patients N=11, mean): 55.6%
Cmax ([1]; 30 mg/m^2, IV 30-minute infusion, patients N=4, mean): 711 ng/mL
bioavailability ([1]; 30 mg/m^2, oral solution vs IV, patients N=4, mean): 62.2%
weekly dose administered without severe toxicity being observed [2]: up to 30 mg/m^2
tumor response to treatment (breast tumors): responded
tumor response to treatment (colon tumors): responded
degradation of the drug during dissolution, lyophilization and drying [3]: No detectable degradation
